Experimental data published in ChEMBL document CHEMBL1201862, “PubChem BioAssay data set” (2004).
Active and inactive are the calls of the source.

How the values were obtained:
[1] = biological target: Voltage-gated inwardly rectifying potassium channel KCNH2 (Homo sapiens, UniProt Q12809); test: concentration-dependent hERG rescue from blockers – cell-based, thallium flux, dose response (AID 2121); format: ADME
[2] = HPDE-C7 pancreatic duct cell viability loss – fluorescence, HTS (AID 430); format: functional, cell-based; conditions: Homo sapiens
[3] = viability loss of HPDE-C7K cells – cell-based, fluorescence, HTS, primary screen (AID 431); format: functional; conditions: Homo sapiens
Protein Tat = biological target: T1, Protein Tat (Human immunodeficiency virus type 1 group M subtype B (isolate HXB2)(HIV-1), UniProt P04608); format: functional;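 further: tat binding to TAR RNA read out by fluorescence polarization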
T1 sequence (P04608 whole entry): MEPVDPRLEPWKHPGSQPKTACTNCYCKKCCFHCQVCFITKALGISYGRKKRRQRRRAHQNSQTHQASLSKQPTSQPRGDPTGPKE

[4] = biological target: T2, Calpain-2 catalytic subunit (Sus scrofa, UniProt P43367); test: m-calpain protease blockers, concentration series – biochemical, fluorogenic peptide substrate, dose response (AID 1420); format: functional
T2 sequence (P43367 whole entry): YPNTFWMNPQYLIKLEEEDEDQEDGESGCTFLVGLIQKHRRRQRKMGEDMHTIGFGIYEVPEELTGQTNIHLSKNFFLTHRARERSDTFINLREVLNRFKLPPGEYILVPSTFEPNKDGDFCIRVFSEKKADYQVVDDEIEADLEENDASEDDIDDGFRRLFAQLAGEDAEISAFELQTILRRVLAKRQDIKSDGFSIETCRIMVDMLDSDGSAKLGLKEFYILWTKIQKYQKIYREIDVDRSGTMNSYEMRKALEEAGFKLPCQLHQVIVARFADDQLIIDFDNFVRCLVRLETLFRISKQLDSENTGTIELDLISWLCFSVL

[5] = biological target: T3, Corticotropin-releasing factor receptor 2/Corticotropin-releasing factor-binding protein (Homo sapiens, UniProt P24387+Q13324); test: Dose Response confirmation of uHTS hits for small molecule antagonists of the CRF-binding protein and CRF-R2 receptor complex.; format: functional; conditions: read-out: IC50_Mean
T3 sequence (Q13324 whole entry): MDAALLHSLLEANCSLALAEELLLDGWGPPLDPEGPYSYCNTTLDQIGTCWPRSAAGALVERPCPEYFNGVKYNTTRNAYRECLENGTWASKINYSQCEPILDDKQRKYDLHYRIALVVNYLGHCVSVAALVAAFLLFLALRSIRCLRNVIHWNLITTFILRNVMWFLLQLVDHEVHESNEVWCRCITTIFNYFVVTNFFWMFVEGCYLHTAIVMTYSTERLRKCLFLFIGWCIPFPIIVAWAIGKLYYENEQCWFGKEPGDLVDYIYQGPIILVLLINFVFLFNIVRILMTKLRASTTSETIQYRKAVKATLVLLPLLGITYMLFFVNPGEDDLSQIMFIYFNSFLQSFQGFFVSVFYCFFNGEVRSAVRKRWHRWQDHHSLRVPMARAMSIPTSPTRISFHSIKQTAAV
T3 sequence (P24387 whole entry): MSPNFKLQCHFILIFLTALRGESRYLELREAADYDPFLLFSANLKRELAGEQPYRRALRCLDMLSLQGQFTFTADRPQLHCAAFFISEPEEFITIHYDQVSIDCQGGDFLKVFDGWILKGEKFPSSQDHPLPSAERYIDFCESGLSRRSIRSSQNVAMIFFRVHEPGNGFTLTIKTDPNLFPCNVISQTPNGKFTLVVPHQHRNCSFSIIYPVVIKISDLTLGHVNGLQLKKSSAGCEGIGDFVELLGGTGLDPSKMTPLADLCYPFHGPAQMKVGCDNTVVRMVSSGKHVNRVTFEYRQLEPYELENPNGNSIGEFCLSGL

[6] = biological target: T3, Corticotropin-releasing factor receptor 2/Corticotropin-releasing factor-binding protein; test: activators of CRF receptor 2 with binding protein – uHTS hits, confirmation (AID 602473); format: functional; conditions: read-out: EC50_Mean
[7] = biological target: T4, 1-phosphatidylinositol 4,5-bisphosphate phosphodiesterase gamma-1 (Homo sapiens, UniProt P19174); test: Counterscreen for inhibitors of phospholipase C isozymes (PLC-B3): Fluorescence-based biochemical high throughput dose response assay to identify inhibitors of phospholipase C isozymes (PLC-gamma1).
T4 sequence (P19174 whole entry): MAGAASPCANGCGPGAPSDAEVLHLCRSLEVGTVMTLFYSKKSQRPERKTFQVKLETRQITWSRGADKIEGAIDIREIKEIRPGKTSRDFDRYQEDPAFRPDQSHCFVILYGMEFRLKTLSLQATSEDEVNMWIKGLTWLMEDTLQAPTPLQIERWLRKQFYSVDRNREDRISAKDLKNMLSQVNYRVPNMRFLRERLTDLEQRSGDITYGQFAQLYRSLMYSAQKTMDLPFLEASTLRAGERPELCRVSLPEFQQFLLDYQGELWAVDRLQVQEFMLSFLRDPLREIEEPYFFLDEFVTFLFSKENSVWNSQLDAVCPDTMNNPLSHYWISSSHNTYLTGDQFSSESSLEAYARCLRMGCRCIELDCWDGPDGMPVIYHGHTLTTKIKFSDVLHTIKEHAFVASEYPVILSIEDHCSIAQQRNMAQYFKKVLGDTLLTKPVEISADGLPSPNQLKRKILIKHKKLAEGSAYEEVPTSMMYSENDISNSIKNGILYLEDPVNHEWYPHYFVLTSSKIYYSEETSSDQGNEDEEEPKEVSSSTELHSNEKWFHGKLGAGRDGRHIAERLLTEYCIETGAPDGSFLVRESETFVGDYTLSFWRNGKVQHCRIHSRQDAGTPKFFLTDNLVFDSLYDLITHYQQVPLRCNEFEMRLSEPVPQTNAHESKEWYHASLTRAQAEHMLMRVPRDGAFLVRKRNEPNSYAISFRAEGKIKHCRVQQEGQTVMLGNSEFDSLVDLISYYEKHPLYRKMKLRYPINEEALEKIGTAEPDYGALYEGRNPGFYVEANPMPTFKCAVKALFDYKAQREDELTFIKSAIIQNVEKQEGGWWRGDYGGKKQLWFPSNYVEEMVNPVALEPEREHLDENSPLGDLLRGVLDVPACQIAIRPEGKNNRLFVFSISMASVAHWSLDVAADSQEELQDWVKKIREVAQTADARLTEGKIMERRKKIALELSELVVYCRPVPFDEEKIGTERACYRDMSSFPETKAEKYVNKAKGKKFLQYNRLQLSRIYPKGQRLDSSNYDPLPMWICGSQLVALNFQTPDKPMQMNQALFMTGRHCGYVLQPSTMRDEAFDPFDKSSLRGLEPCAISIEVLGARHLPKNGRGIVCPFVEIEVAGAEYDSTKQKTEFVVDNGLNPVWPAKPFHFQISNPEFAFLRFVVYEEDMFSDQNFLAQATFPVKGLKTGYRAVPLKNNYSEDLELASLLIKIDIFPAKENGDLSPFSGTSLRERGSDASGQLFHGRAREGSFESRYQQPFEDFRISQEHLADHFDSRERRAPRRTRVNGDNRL

[8] = biological target: T5, 1-phosphatidylinositol 4,5-bisphosphate phosphodiesterase beta-3 (Homo sapiens, UniProt Q01970); test: Fluorescence-based biochemical high throughput dose response assay to identify inhibitors of phospholipase C isozymes (PLC-B3).
T5 sequence (Q01970 whole entry): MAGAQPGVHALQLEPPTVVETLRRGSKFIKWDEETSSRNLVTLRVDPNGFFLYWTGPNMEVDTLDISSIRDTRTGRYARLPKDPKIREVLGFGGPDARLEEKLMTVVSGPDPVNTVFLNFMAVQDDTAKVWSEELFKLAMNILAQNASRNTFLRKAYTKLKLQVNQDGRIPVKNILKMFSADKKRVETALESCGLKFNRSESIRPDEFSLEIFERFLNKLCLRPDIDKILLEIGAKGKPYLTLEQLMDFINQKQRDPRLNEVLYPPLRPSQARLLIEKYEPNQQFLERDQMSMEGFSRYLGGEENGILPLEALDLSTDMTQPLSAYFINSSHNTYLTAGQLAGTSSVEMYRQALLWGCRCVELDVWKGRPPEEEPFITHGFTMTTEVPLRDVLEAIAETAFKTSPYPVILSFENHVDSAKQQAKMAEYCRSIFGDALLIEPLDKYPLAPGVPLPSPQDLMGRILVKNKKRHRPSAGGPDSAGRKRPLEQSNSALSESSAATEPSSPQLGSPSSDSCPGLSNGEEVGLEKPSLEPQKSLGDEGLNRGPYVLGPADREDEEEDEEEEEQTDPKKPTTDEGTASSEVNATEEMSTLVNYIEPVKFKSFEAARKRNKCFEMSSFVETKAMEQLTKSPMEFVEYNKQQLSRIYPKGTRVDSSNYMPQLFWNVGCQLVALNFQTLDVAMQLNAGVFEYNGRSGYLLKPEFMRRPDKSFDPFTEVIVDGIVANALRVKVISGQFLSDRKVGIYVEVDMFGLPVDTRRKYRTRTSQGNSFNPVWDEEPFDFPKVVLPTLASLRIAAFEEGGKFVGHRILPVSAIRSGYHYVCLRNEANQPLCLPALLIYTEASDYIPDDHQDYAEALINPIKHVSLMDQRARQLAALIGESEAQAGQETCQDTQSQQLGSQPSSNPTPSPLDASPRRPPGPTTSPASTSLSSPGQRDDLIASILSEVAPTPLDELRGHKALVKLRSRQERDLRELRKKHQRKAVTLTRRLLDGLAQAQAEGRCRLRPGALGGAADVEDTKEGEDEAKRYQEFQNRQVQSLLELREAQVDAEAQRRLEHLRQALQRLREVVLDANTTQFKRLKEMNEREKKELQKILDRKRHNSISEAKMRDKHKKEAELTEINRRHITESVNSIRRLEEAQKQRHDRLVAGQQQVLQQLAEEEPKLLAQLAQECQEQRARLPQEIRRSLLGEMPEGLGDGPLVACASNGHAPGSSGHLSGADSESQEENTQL

[9] = blockers of bursicon-stimulated LGR2 cAMP reporter – cell-based, HEK293, CRE-luciferase reporter, cherry pick, set 2, dose response (AID 743343); format: functional;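 further: transfected cells were stimulated with diluted bursicon conditioned medium after compound addition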
[10] = blockade of melanocortin 4 receptor signaling – cell-based, plate reader, cherry pick, counter-screen for LGR2 antagonist project, dose response (AID 743444); format: functional;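 further: transfected HEK 293 cells stimulated with alpha-MSH peptide; potency of inhibitors of the alpha-MSH evoked signal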
[11] = viability loss in HEK293 cells – cell-based, plate reader, cherry-picked samples, cytotoxicity control, dose response (AID 743446); format: functional
Large T antigen = Large T antigen (Simian virus 40, UniProt P03070); format: functional, Betapolyomavirus macacae;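 further: Confirmatory-stage PubChem screen for compounds that inhibit SV40 T antigen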
Sequence of Large T antigen (P03070 whole entry): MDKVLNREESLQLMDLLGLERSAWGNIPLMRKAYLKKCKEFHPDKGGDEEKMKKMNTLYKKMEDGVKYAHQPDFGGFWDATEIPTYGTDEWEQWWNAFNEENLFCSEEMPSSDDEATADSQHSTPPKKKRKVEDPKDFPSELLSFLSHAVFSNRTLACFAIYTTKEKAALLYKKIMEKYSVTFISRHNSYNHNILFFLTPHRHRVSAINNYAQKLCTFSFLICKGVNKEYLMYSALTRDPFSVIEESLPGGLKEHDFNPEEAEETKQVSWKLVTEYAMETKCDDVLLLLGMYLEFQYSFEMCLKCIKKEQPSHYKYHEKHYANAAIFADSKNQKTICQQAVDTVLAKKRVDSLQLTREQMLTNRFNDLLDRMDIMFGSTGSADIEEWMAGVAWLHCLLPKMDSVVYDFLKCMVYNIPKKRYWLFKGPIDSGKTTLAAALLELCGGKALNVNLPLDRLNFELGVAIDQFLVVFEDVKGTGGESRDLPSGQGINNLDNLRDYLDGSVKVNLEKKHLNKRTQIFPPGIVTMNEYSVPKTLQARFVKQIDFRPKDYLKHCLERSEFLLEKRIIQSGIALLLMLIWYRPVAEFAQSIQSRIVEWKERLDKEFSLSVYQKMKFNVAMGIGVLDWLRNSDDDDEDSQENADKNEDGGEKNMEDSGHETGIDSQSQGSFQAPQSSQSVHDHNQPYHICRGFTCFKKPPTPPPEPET

[12] = viability loss in THP-1 monocytes – THP-1 cells, cytotoxicity control for Vif-APOBEC3G degradation inhibitor project, dose response (AID 1117359); format: functional; conditions: THP-1
Genome polyprotein = Genome polyprotein (dengue virus type 2, UniProt P29990); test: flavivirus cap methylation enzyme inhibition – biochemical, confirmation dose response, primary screen (AID 588689); format: functional
Sequence of Genome polyprotein (P29990 2492-3391 limits assumed): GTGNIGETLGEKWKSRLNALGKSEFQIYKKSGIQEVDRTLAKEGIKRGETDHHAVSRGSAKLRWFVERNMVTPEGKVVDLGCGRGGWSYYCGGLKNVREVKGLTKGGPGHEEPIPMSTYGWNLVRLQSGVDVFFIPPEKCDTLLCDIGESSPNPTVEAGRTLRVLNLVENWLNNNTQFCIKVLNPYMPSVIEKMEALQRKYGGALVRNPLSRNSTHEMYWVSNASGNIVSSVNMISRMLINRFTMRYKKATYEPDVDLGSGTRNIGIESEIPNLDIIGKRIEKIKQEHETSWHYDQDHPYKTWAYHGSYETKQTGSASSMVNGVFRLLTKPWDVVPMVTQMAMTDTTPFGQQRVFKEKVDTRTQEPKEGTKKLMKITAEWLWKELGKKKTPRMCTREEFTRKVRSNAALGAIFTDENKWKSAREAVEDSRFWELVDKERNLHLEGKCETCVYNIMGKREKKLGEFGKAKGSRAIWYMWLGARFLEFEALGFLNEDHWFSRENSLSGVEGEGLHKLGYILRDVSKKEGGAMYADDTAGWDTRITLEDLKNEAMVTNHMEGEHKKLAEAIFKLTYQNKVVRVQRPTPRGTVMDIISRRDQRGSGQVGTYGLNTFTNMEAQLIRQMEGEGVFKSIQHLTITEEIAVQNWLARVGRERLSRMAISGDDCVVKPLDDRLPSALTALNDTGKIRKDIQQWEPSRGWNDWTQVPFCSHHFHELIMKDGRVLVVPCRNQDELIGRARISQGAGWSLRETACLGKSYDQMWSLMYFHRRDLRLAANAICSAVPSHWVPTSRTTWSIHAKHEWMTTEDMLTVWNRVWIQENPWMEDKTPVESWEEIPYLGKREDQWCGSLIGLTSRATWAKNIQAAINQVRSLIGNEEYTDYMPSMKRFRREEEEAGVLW

[13] = reduced cellular PGC1a acetyl-lysine signal – cell-based, cherry-picked samples, dose response (AID 720514); format: functional;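 further: potency may reflect raised or lowered acetylation signal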
[14] = P. falciparum Dd2 growth inhibitors, dose response, SYBR Green, cherry-picked samples (AID 1159567); format: functional, cell-based
[15] = toxicity to human hepatoma HepG2 cells – cell-based, cherry-picked samples, cytotoxicity control, dose response (AID 1159577); format: functional
[16] = growth inhibition of yeast DHODH-expressing 3D7 parasites – SYBR Green, dry powder samples, dose response (AID 1159570); format: functional, cell-based;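 further: parasite growth measured after 72 hours of compound exposure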
[17] = toxicity to human HepG2 hepatoma cells – cell-based, plate reader, dry powder samples, cytotoxicity control, dose response (AID 1159569); format: functional;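 further: inhibitor potency with signal falling toward the positive control level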
[18] = Dd2 malaria parasite growth inhibition potency – SYBR Green, dry powder samples, dose response (AID 1159566); format: functional, cell-based;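 further: potency for growth inhibition with lower SYBR green DNA signal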
[19] = growth inhibition of PfATP4-mutant resistant parasites – NITD609-resistant line, SYBR Green, dry powder, dose response (AID 1159571); format: functional, cell-based;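 further: parasites synchronized at ring stage by sorbitol before testing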

Sequence of Voltage-gated inwardly rectifying potassium channel KCNH2 (Q12809 whole entry): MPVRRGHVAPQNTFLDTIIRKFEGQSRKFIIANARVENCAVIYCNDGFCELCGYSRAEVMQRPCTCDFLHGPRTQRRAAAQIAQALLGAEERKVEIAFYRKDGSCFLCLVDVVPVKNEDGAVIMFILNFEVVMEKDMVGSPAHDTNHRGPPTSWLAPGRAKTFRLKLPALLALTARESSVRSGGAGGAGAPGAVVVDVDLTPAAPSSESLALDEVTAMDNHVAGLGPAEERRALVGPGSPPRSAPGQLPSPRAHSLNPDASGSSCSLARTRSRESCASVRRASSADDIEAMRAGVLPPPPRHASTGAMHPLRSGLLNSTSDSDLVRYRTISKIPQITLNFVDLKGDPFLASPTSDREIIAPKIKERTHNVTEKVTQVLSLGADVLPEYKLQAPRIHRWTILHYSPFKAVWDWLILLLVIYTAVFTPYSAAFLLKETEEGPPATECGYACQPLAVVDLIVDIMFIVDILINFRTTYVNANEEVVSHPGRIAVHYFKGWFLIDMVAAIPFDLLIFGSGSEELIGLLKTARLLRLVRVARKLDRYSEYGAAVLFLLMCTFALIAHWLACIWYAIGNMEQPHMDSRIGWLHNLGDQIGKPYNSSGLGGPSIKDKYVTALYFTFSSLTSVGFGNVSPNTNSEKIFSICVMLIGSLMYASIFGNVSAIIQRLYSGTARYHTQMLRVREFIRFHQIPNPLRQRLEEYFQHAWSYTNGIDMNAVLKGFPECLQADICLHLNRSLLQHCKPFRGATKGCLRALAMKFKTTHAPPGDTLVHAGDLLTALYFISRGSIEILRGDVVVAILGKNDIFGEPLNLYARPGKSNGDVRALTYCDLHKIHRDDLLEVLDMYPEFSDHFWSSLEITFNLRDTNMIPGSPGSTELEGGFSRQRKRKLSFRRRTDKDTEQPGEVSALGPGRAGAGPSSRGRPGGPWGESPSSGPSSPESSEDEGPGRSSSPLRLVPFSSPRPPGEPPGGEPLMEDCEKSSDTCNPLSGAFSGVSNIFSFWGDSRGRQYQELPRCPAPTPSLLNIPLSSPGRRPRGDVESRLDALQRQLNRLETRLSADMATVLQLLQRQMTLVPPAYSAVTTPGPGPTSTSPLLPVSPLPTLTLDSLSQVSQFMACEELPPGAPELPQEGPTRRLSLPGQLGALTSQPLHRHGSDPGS

## CC(=O)c1c(N)nc(-c2ccccc2)nc1S
[1]
  EC50: 11 µM (active)

## OC(COCc1ccc(Cl)cc1)CN1CCN(CC(O)COCc2ccc(Cl)cc2)CC1 (stereo not drawn)
[2]
  EC50: > 20 µM (not active)
[3]
  EC50: > 20 µM (not active)

## COc1cccc(C(C#N)N2CCCCC2)c1O (stereo not drawn)
Protein Tat
  IC50: > 100 µM (active)

## Brc1ccc(CSc2nnc(Cc3c[nH]c4ccccc34)o2)cc1
[2]
  EC50: 14.2 µM (active)
[3]
  EC50: 13.4 µM (active)
[4]
  IC50: 5.75 µM (not active)
[5]
  IC50: > 47.1 µM (inactive)
[6]
  EC50: > 53 µM (inactive)

## COc1ccc(NC(=O)c2cc(-c3ccc(OC)c(OC)c3)on2)cc1OC
[7]
  IC50: > 123 µM (inactive)
[8]
  IC50: > 123 µM (inactive)

## Cc1cc(C(=O)COC(=O)c2cccn2C)c(C)n1Cc1ccco1
[9]
  AC50: 5.16 µM (active)
[10]
  AC50: 9.65 µM (active)
[11]
  AC50: > 52 µM (inactive)

## C=CCc1cccc(CNc2nc3ccccc3n2CC)c1O
[2]
  EC50: > 20 µM (not active)
[3]
  EC50: > 20 µM (not active)

## CCOC(=O)N1CCN(c2ccc(O)cc2)CC1
Large T antigen
  IC50: 10.2 µM (active)
Protein Tat
  IC50: 14 µM (inconclusive)
[12]
  CC50: > 40 µM (active)

## CCOc1cc(Br)cc(C(c2c(C(=O)O)[nH]c3ccccc23)c2c(C(=O)O)[nH]c3ccccc23)c1O
Genome polyprotein
  IC50: 18.7 µM (active)
[7]
  IC50: 18.6 µM (inactive)
[8]
  IC50: > 122 µM (inactive)

## COC(=O)C[C@@H]1CC[C@@H]2[C@H](COc3ccc(NC(=O)c4cccc(F)c4)cc3C(=O)N2C)O1
[7]
  IC50: > 122 µM (inactive)
[8]
  IC50: > 122 µM (inactive)

## COc1cc(CN2C[C@@H]3N[C@H](C2)[C@@H]3c2ccc(/C=C/c3ccccc3)cc2)cc(OC)c1
[13]
  AC50: 13 µM (active)
[14]
  AC50: 2.38 µM (active)
[15]
  AC50: 6.51 µM (active)

## COc1ccc2c3c(n(C)c2c1)[C@H](CO)N(C(=O)Nc1ccc(F)cc1)CC31CN(C(=O)c2ccc3c(c2)OCO3)C1
[16]
  AC50: 1.89 µM (active)
[17]
  AC50: > 100 µM (inactive)
[14]
  AC50: 2.68 µM (active)
[18]
  AC50: 0.683 µM (active)
[19]
  AC50: 1.2 µM (active)

## CO[C@@H]1CN(C)C(=O)c2ccc(NC(=O)c3nc4ccccc4s3)cc2OC[C@@H](C)N(Cc2ccncc2)C[C@H]1C
[16]
  AC50: 1.39 µM (active)
[17]
  AC50: 26.7 µM (active)
[14]
  AC50: 2.62 µM (active)
[18]
  AC50: 1.33 µM (active)
[15]
  AC50: > 39 µM (inactive)
[19]
  AC50: 1.34 µM (active)
